Measurements published in ChEMBL document CHEMBL1124952, “Growth inhibition and induction of cellular differentiation of human myeloid leukemia cells in culture by carbamoyl congeners of ribavirin” (1990).

Columns and labels:
Format in all cases: functional
HL-60 = test: Evaluated for cell growth inhibition and induction of cellular differentiation of human myeloid leukemia cell line (HL-60); settings: read-out: ID50 (the source's name)
K562 = test: Evaluated for cell growth inhibition and induction of cellular differentiation of human myeloid leukemia cell line (K562); settings: read-out: ID50 (the source's name)
L1210 = test: Evaluated for cell growth inhibition and induction of cellular differentiation of Murine leukemia cell line (L-1210); settings: Mus musculus, read-out: ID50 (the source's name)
[1] = Evaluated for cell growth inhibition and induction of cellular differentiation of human B-lymphoblast cell line (WI-L2); settings: WIL2, read-out: ID50 (the source's name)

| Compound | IC50 (HL-60) [µM] | IC50 (K562) [µM] | IC50 (L1210) [µM] | IC50 [1] [µM] |
| --- | --- | --- | --- | --- |
| NC(=O)c1nn([C@@H]2O[C@H](CO)[C@@H](O)[C@H]2O)nc1C(N)=O | 32 | 26 | > 100 | 41 |
| N=C(N)c1nn(C2OC(CO)[C@H](O)C2O)c(N)c1C(=N)N (stereo not given in full) | 130 | > 200 | 200 | 179 |
| N=C(NO)c1nn(C2O[C@H](CO)[C@@H](O)[C@H]2O)nc1/C(N)=N/O (stereo not given in full) | > 200 | > 200 | > 200 | > 200 |
| NC(=O)c1cn(C2O[C@H](CO)[C@@H](O)[C@H]2O)nc1C(N)=O (stereo not given in full) | 58 | 160 | > 100 | 100 |
| N=C(NO)c1nn(C2O[C@H](CO)[C@@H](O)[C@H]2O)c(N)c1/C(N)=N/O (stereo not given in full) | > 200 | > 200 | > 200 | > 200 |
| N=C(S)c1nn(C2O[C@H](CO)[C@@H](O)[C@H]2O)nc1C(N)=S (stereo not given in full) | > 200 | > 200 | > 200 | > 200 |
| NC(=O)c1nn(C2O[C@H](CO)[C@@H](O)[C@H]2O)c(N)c1C(N)=O (stereo not given in full) | 39 | 51 | 44 | 46 |
| N=C(S)c1nn(C2O[C@H](CO)[C@@H](O)[C@H]2O)c(N)c1C(N)=S (stereo not given in full) | 200 | > 200 | > 200 | 154 |
| NC(=O)c1cn(C2O[C@H](CO)[C@@H](O)[C@H]2O)cc1C(N)=O (stereo not given in full) | 36 | 32 | 48 | 33 |
| NC(=O)c1ncn([C@@H]2O[C@H](CO)[C@@H](O)[C@H]2O)n1 [RIBAVIRIN] | 67 | 50 | 36 | 42 |
